Experimental data from patent US6956040B2, “Oxazolidinone piperazinyl derivatives as potential antimicrobials” (Ranbaxy Laboratories Limited, priority 2001, dated 2005).
In brackets after ≈: the same amount, converted by molar mass. Like-named read-outs stand apart in the source and are kept apart here.

How the values were obtained:
S. pyogenes 19615 = assay: MIC, agar incorporation method; assay type: cell-based, Streptococcus pyogenes
Source text: (§1) The compounds of the invention display antibacterial activity when tested by the agar incorporation method. The following minimum inhibitory concentrations (μg/ml) were obtained for representative compounds of the invention which are given below in the following tables.
(§2) • 1) S.aureus ATCC 25923—Staphylococus aureus ATCC 25923 • 2) MRSA 15187—Methicillin Resistant Staphylococcus aureus • 3) Ent. faecalis ATCC 29212—Enterococcus faecalis ATCC 29212 • 4) Ent. faecium 6A—Enterococcus faecium 6A Van®, Cipro® • 5) Strep. pne. ATCC 6303—Streptococcus pneumoniae ATCC 6303 • 6) Strep. pyog. ATCC 19615—Streptococcus pyogenes • 7) S. epidermidis—Staphylococcus epidermidis ATCC 12228
(§3) Briefly, the compounds were dissolved in DMSO and doubling dilution of the compounds were incorporated into Meuller Hilton agar before solidification. Inoculum was prepared by suspending 4 to 5 colonies into 5 ml of normal saline solution and adjusting the turbidity to 0.5 Macfarland turbidity standard tables (1.5×10^8 CFU/ml), after appropriate dilutions, 10^4 CFU/spot was transfered into the surface of dried plate and incubated for 18 hours (24 hours for MRSN studies). The concentration showing no growth of the inoculated culture was recorded as the MIC. Appropriate ATCC standard strains were simultaneously tested and result recorded only when the MIC's against standard antibiotics were within the acceptable range.

[1] = Changes in MIC under different conditions: Agar MIC; assay type: cell-based; conditions: strain not given
Protocol: as §1, §3

E. faecalis = assay: Summary of in vitro activity (MIC) against E. faecalis; assay type: cell-based, Enterococcus faecalis
Protocol: as §1, §3

[2] = Changes in MIC under different conditions: Broth MIC; assay type: cell-based; conditions: strain not given
S. pneum 6303 = assay: MIC, agar incorporation method; assay type: cell-based, Streptococcus pneumoniae
Source text: as §1, §2, §3

MRSA 15187 = assay: MIC, agar incorporation method; assay type: cell-based, Staphylococcus aureus
Source text: as §1, §2, §3

S. aureus 25923 = assay: MIC, agar incorporation method; assay type: cell-based, Staphylococcus aureus
Source text: as §1, §2, §3

VRE 6A = assay: MIC, agar incorporation method; assay type: cell-based, Enterococcus faecium
Source text: as §1, §2, §3

G+ve = assay: Summary of in vitro activity (MIC) against G+ve bacteria; assay type: cell-based; conditions: for Geometric Mean of in vitro activity (MIC): Gram +ve
Protocol: as §1, §3

MRSA 33 = assay: MIC, agar incorporation method; assay type: cell-based, Staphylococcus aureus
Protocol: as §1, §3

MRSA 562 [3] = assay: MIC, agar incorporation method; assay type: cell-based, Staphylococcus aureus
Protocol: as §1, §3

S. pneumoniae = assay: Summary of in vitro activity (MIC) against S. pneumoniae; assay type: cell-based, Streptococcus pneumoniae
Protocol: as §1, §3

E. faecalis 29212 = assay: MIC, agar incorporation method; assay type: cell-based, Enterococcus faecalis
Source text: as §1, §2, §3

S. pneum AB 34 = assay: MIC, agar incorporation method; assay type: cell-based, Streptococcus pneumoniae
Protocol: as §1, §3

S. aureus = assay: Summary of in vitro activity (MIC) against S. aureus; assay type: cell-based, Staphylococcus aureus
Protocol: as §1, §3

MRSA 562 [4] = assay: In vivo activity against MRSA 562 (ED50); set-up: species or system Staphylococcus aureus
[5] = S. pyogenes 19615, agar incorporation
[6] = S. pneum 6303, agar incorporation
[7] = S. aureus 25923, agar incorporation
[8] = MRSA 562, agar incorporation, Table 1
[9] = E. faecalis 29212, agar incorporation
[10] = S. pneum AB 34, agar incorporation

CN[C@H](CC(C)C)C(=O)N[C@H]1C(=O)N[C@@H](CC(N)=O)C(=O)N[C@H]2C(=O)N[C@H]3C(=O)N[C@H](C(=O)N[C@H](C(=O)O)c4cc(O)cc(O)c4-c4cc3ccc4O)[C@H](O)c3ccc(c(Cl)c3)Oc3cc2cc(c3O[C@@H]2O[C@H](CO)[C@@H](O)[C@H](O)[C@H]2O[C@H]2C[C@](C)(N)[C@H](O)[C@H](C)O2)Oc2ccc(cc2Cl)[C@H]1O [Vancomycin, reference compound]
MIC (S. pyogenes 19615; Streptococcus pyogenes, 19615): 0.5 µg/mL (≈ 0.345 µM) | Agar MIC [1]: 1 µg/mL | MIC50 (E. faecalis; Enterococcus faecalis): 16 µg/mL (≈ 11 µM) | MIC90 (E. faecalis; Enterococcus faecalis): 16 µg/mL (≈ 11 µM) | MIC (E. faecalis; Enterococcus faecalis, read-out: Geometric Mean of in vitro activity (MIC)): 9.75 µg/mL (≈ 6.73 µM) | Broth MIC +50% Sheep serum [2]: 1 µg/mL | Broth MIC Normal MH broth [2]: 1 µg/mL | MIC (S. pneum 6303; Streptococcus pneumoniae, 6303): 0.5 µg/mL (≈ 0.345 µM) | MIC (MRSA 15187; Staphylococcus aureus, MRSA): 0.5 µg/mL (≈ 0.345 µM) | MIC (S. aureus 25923; Staphylococcus aureus, 25923): 1 µg/mL (≈ 0.69 µM) | MIC (VRE 6A; Enterococcus, VRE): > 16 µg/mL | MIC50 (G+ve): 0.5 µg/mL (≈ 0.345 µM) | MIC90 (G+ve): 16 µg/mL (≈ 11 µM) | MIC (G+ve; read-out: Geometric Mean of in vitro activity (MIC)): 0.93 µg/mL (≈ 0.642 µM) | MIC (MRSA 33; Staphylococcus aureus, MRSA): 0.5 µg/mL (≈ 0.345 µM) | MIC (MRSA 562 [3]; MRSA 562, Table 5): 0.5 µg/mL (≈ 0.345 µM) | MIC (MRSA 562 [3]; Staphylococcus aureus, MRSA): 0.5 µg/mL (≈ 0.345 µM) | MIC50 (S. pneumoniae; Streptococcus pneumoniae): 0.5 µg/mL (≈ 0.345 µM) | MIC90 (S. pneumoniae; Streptococcus pneumoniae): 0.5 µg/mL (≈ 0.345 µM) | MIC (S. pneumoniae; Streptococcus pneumoniae, read-out: Geometric Mean of in vitro activity (MIC)): 0.39 µg/mL (≈ 0.269 µM) | MIC (E. faecalis 29212; Enterococcus faecalis, 29212): 4 µg/mL (≈ 2.76 µM) | MIC (S. pneum AB 34; Streptococcus pneumoniae, AB34): 0.25 µg/mL (≈ 0.173 µM) | MIC50 (S. aureus; Staphylococcus aureus): 1 µg/mL (≈ 0.69 µM) | MIC90 (S. aureus; Staphylococcus aureus): 1 µg/mL (≈ 0.69 µM) | MIC (S. aureus; Staphylococcus aureus, read-out: Geometric Mean of in vitro activity (MIC)): 1 µg/mL (≈ 0.69 µM)

CC(=O)NC[C@H]1CN(c2ccc(N3CCN(Cc4ccc([N+](=O)[O-])o4)CC3)c(F)c2)C(=O)O1 [Compound No. 15, (S)-N-[[3-[3-fluoro-4-[N-1-[4-{2-furyl-(5-nitro)methyl}]piperazinyl]phenyl]-2-oxo-5-oxazolidinyl]methyl]acetamide]
MIC (S. pyogenes 19615; [5]): 1 µg/mL (≈ 2.17 µM) | Geometric Mean of in vitro activity (MIC) (E. faecalis; E. faecalis): 1.6 µg/mL | MIC50 (E. faecalis; E. faecalis, Number 7): 2 µg/mL (≈ 4.33 µM) | MIC90 (E. faecalis; E. faecalis, Number 7): 2 µg/mL (≈ 4.33 µM) | MIC (S. pneum 6303; [6]): 1 µg/mL (≈ 2.17 µM) | MIC (MRSA 15187; MRSA 15187, agar incorporation): 2 µg/mL (≈ 4.33 µM) | MIC (S. aureus 25923; [7]): 2 µg/mL (≈ 4.33 µM) | MIC (VRE 6A; VRE 6A, agar incorporation): 1 µg/mL (≈ 2.17 µM) | MIC50 (G+ve; G+ve, Number 49): 1 µg/mL (≈ 2.17 µM) | MIC90 (G+ve; G+ve, Number 49): 2 µg/mL (≈ 4.33 µM) | Geometric Mean of in vitro activity (MIC) (G+ve): 1.08 µg/mL | MIC (MRSA 33; MRSA 33, agar incorporation): 2 µg/mL (≈ 4.33 µM) | MIC (MRSA 562 [3]; MRSA 562, Table 5): 2 µg/mL (≈ 4.33 µM) | MIC (MRSA 562 [3]; [8]): 2 µg/mL (≈ 4.33 µM) | Geometric Mean of in vitro activity (MIC) (S. pneumoniae; S. pneumoniae): 1.04 µg/mL | MIC50 (S. pneumoniae; S. pneumoniae, Number 19): 2 µg/mL (≈ 4.33 µM) | MIC90 (S. pneumoniae; S. pneumoniae, Number 19): 4 µg/mL (≈ 8.67 µM) | ED50 (mg/kg body weight) PO (MRSA 562 [4]): 4.33 mg/kg body weight | MIC (E. faecalis 29212; [9]): 2 µg/mL (≈ 4.33 µM) | MIC (S. pneum AB 34; [10]): 2 µg/mL (≈ 4.33 µM) | Geometric Mean of in vitro activity (MIC) (S. aureus; S. aureus): 1.63 µg/mL | MIC50 (S. aureus; S. aureus, Number 8): 2 µg/mL (≈ 4.33 µM) | MIC90 (S. aureus; S. aureus, Number 8): 2 µg/mL (≈ 4.33 µM)

CC(=O)NC[C@H]1CN(c2ccc(N3CCC(N(C)C(=O)c4ccc([N+](=O)[O-])o4)CC3)c(F)c2)C(=O)O1 [Compound No. 44]
MIC (S. pyogenes 19615; [5]): 0.5 µg/mL (≈ 0.993 µM) | Agar MIC [1]: <0.1 µg/mL | Geometric Mean of in vitro activity (MIC) (E. faecalis; E. faecalis): 0.11 µg/mL | MIC50 (E. faecalis; E. faecalis, Number 7): 0.064 µg/mL (≈ 0.127 µM) | MIC90 (E. faecalis; E. faecalis, Number 7): 0.25 µg/mL (≈ 0.497 µM) | Broth MIC +50% Sheep serum [2]: 0.25 µg/mL | Broth MIC Normal MH broth [2]: <0.1 µg/mL | MIC (S. pneum 6303; [6]): 2 µg/mL (≈ 3.97 µM) | MIC (MRSA 15187; MRSA 15187, agar incorporation): <0.1 µg/mL | MIC (S. aureus 25923; [7]): 0.25 µg/mL (≈ 0.497 µM) | MIC (VRE 6A; VRE 6A, agar incorporation): <0.1 µg/mL | MIC50 (G+ve; G+ve, Number 49): 0.5 µg/mL (≈ 0.993 µM) | MIC90 (G+ve; G+ve, Number 49): 2 µg/mL (≈ 3.97 µM) | Geometric Mean of in vitro activity (MIC) (G+ve): 0.31 µg/mL | MIC (MRSA 33; MRSA 33, agar incorporation): <0.1 µg/mL | MIC (MRSA 562 [3]; MRSA 562, Table 5): <0.1 µg/mL | MIC (MRSA 562 [3]; [8]): <0.1 µg/mL | Geometric Mean of in vitro activity (MIC) (S. pneumoniae; S. pneumoniae): 0.96 µg/mL | MIC50 (S. pneumoniae; S. pneumoniae, Number 19): 1 µg/mL (≈ 1.99 µM) | MIC90 (S. pneumoniae; S. pneumoniae, Number 19): 2 µg/mL (≈ 3.97 µM) | ED50 (mg/kg body weight) PO (MRSA 562 [4]): >25 mg/kg body weight | MIC (E. faecalis 29212; [9]): 0.25 µg/mL (≈ 0.497 µM) | MIC (S. pneum AB 34; [10]): 2 µg/mL (≈ 3.97 µM) | Geometric Mean of in vitro activity (MIC) (S. aureus; S. aureus): 0.11 µg/mL | MIC50 (S. aureus; S. aureus, Number 8): 0.064 µg/mL (≈ 0.127 µM) | MIC90 (S. aureus; S. aureus, Number 8): 0.25 µg/mL (≈ 0.497 µM)
